Data reported in patent publication EP0377642B1, “HERBICIDES FOR WEED CONTROL IN RICE” (E.I. DU PONT DE NEMOURS AND COMPANY, priority 1987, dated 1989).

Experiments:
Assay type in all cases: in vivo
Echinochloa crus-galli = experiment: Herbicidal efficacy in Indonesia, applied 2 weeks after transplanting (Table 6)
Excerpt: (§1) Methyl 2-[[[[(4-methoxy-6-methyl-1,3,5-triazin-2-yl)amino]carbonyl]amino]sulfonyl]benzoate (Compound 1) and mixtures thereof with other compounds were applied as a spray (using a hand sprayer) to rice (either transplanted or direct seeded) in several rice growing areas in Southeast Asia and in the U.S. Tables 1-28 contain the results of these tests and clearly exemplify the utility of this invention. The details of each application are included in the appropriate table. [drawing 2]

Monochoria vaginalis [1] = experiment: as above
Excerpt: as §1

Salvinia molesta = experiment: as above
Excerpt: as §1

Scirpus juncoides = experiment: as above
Excerpt: as §1

rice [2] = experiment: as above; details: 2 weeks after application
Excerpt: as §1

Cyperus difformis = experiment: Herbicidal efficacy alone and with 2,4-D in Malaysia, applied 30 days after seeding (Table 8); details: 22 days after treatment
Excerpt: as §1

FIMBRISTYLIS MILIACEA = experiment: as above; details: 22 days after treatment
Excerpt: as §1

Marsilea crenata = experiment: as above; details: 22 days after treatment
Excerpt: as §1

Monochoria vaginalis [3] = experiment: as above; details: 22 days after treatment
Excerpt: as §1

Scirpus grossus = experiment: as above; details: 22 days after treatment
Excerpt: as §1

Sphenoclea zeylanica = experiment: as above; details: 22 days after treatment
Excerpt: as §1

Aeschynomene indica = experiment: Late-post application in Beaumont, Texas, with 0.25% AG-98 (Table 9); details: 70 days after seeding
Excerpt: as §1

Annual sedge (?) = experiment: as above; details: 70 days after seeding
Excerpt: as §1

Caperonia castaniifolia = experiment: as above; details: 70 days after seeding
Excerpt: as §1

Commelina communis = experiment: as above; details: 70 days after seeding
Excerpt: as §1

Echinochloa colonum = experiment: as above; details: 70 days after seeding
Excerpt: as §1

Eclipta alba = experiment: as above; details: 70 days after seeding
Excerpt: as §1

Sesbania exaltata = experiment: as above; details: 70 days after seeding
Excerpt: as §1

rice [4] = experiment: as above; details: 70 days after seeding
Excerpt: as §1

rice [5] = experiment: Greenhouse test of Compound 1 and Compound 2, crop tolerance (Table 26); details: treated 12 days after transplanting, rated 24 days after treatment; for % CONTROL OR INJURY LEMONT: indica rice variety Lemont; for % CONTROL OR INJURY M101: japonica rice variety M101
Excerpt: as §1

[6] = 3 GAI/HA, 2 weeks after application
[7] = 3 GAI/HA, 5 weeks after application
[8] = 3 GAI/HA, 7 weeks after application
[9] = 4 GAI/HA, 2 weeks after application
[10] = 4 GAI/HA, 5 weeks after application
[11] = 4 GAI/HA, 7 weeks after application
[12] = 6 GAI/HA, 2 weeks after application
[13] = 6 GAI/HA, 5 weeks after application
[14] = 6 GAI/HA, 7 weeks after application
[15] = 8 GAI/HA, 2 weeks after application
[16] = 8 GAI/HA, 5 weeks after application
[17] = 8 GAI/HA, 7 weeks after application

COC(=O)c1ccccc1S(=O)(=O)NC(=O)Nc1nc(C)nc(OC)n1 [Compound 1, Methyl 2-[[[[(4-methoxy-6-methyl-1,3,5-triazin-2-yl)amino]carbonyl]amino]sulfonyl]benzoate]
% CONTROL EC (Echinochloa crus-galli; [6]): 20%
% CONTROL EC (Echinochloa crus-galli; [7]): 30%
% CONTROL EC (Echinochloa crus-galli; [8]): 0%
% CONTROL EC (Echinochloa crus-galli; [9]): 20%
% CONTROL EC (Echinochloa crus-galli; [10]): 30%
% CONTROL EC (Echinochloa crus-galli; [11]): 0%
% CONTROL EC (Echinochloa crus-galli; [12]): 20%
% CONTROL EC (Echinochloa crus-galli; [13]): 30%
% CONTROL EC (Echinochloa crus-galli; [14]): 0%
% CONTROL EC (Echinochloa crus-galli; [15]): 20%
% CONTROL EC (Echinochloa crus-galli; [16]): 30%
% CONTROL EC (Echinochloa crus-galli; [17]): 0%
% CONTROL MV (Monochoria vaginalis [1]; [6]): 100%
% CONTROL MV (Monochoria vaginalis [1]; [7]): 100%
% CONTROL MV (Monochoria vaginalis [1]; [8]): 100%
% CONTROL MV (Monochoria vaginalis [1]; [9]): 90%
% CONTROL MV (Monochoria vaginalis [1]; [10]): 100%
% CONTROL MV (Monochoria vaginalis [1]; [11]): 100%
% CONTROL MV (Monochoria vaginalis [1]; [12]): 100%
% CONTROL MV (Monochoria vaginalis [1]; [13]): 100%
% CONTROL MV (Monochoria vaginalis [1]; [14]): 100%
% CONTROL MV (Monochoria vaginalis [1]; [15]): 100%
% CONTROL MV (Monochoria vaginalis [1]; [16]): 100%
% CONTROL MV (Monochoria vaginalis [1]; [17]): 100%
% CONTROL SM (Salvinia molesta; [6]): 30%
% CONTROL SM (Salvinia molesta; [7]): 70%
% CONTROL SM (Salvinia molesta; [8]): 80%
% CONTROL SM (Salvinia molesta; [9]): 40%
% CONTROL SM (Salvinia molesta; [10]): 70%
% CONTROL SM (Salvinia molesta; [11]): 80%
% CONTROL SM (Salvinia molesta; [12]): 30%
% CONTROL SM (Salvinia molesta; [13]): 90%
% CONTROL SM (Salvinia molesta; [14]): 90%
% CONTROL SM (Salvinia molesta; [15]): 40%
% CONTROL SM (Salvinia molesta; [16]): 80%
% CONTROL SM (Salvinia molesta; [17]): 90%
% CONTROL SJ (Scirpus juncoides; [6]): 60%
% CONTROL SJ (Scirpus juncoides; [7]): 90%
% CONTROL SJ (Scirpus juncoides; [8]): 70%
% CONTROL SJ (Scirpus juncoides; [9]): 60%
% CONTROL SJ (Scirpus juncoides; [10]): 100%
% CONTROL SJ (Scirpus juncoides; [11]): 70%
% CONTROL SJ (Scirpus juncoides; [12]): 90%
% CONTROL SJ (Scirpus juncoides; [13]): 100%
% CONTROL SJ (Scirpus juncoides; [14]): 80%
% CONTROL SJ (Scirpus juncoides; [15]): 80%
% CONTROL SJ (Scirpus juncoides; [16]): 100%
% CONTROL SJ (Scirpus juncoides; [17]): 80%
% CONTROL RICE (rice [2]; 3 GAI/HA): 10%
% CONTROL RICE (rice [2]; 4 GAI/HA): 10%
% CONTROL RICE (rice [2]; 6 GAI/HA): 10%
% CONTROL RICE (rice [2]; 8 GAI/HA): 10%
% CONTROL CD (Cyperus difformis; 1 GAI/HA): 0%
% CONTROL CD (Cyperus difformis; 2 GAI/HA): 100%
% CONTROL CD (Cyperus difformis; 3 GAI/HA): 95%
% CONTROL CD (Cyperus difformis; 4 GAI/HA): 100%
% CONTROL CD (Cyperus difformis; 5 GAI/HA): 100%
% CONTROL FM (FIMBRISTYLIS MILIACEA; 1 GAI/HA): 0%
% CONTROL FM (FIMBRISTYLIS MILIACEA; 2 GAI/HA): 100%
% CONTROL FM (FIMBRISTYLIS MILIACEA; 3 GAI/HA): 50%
% CONTROL FM (FIMBRISTYLIS MILIACEA; 4 GAI/HA): 50%
% CONTROL FM (FIMBRISTYLIS MILIACEA; 5 GAI/HA): 20%
% CONTROL MC (Marsilea crenata; 1 GAI/HA): 20%
% CONTROL MC (Marsilea crenata; 2 GAI/HA): 95%
% CONTROL MC (Marsilea crenata; 3 GAI/HA): 100%
% CONTROL MC (Marsilea crenata; 4 GAI/HA): 95%
% CONTROL MC (Marsilea crenata; 5 GAI/HA): 100%
% CONTROL MV (Monochoria vaginalis [3]; 1 GAI/HA): 95%
% CONTROL MV (Monochoria vaginalis [3]; 2 GAI/HA): 95%
% CONTROL MV (Monochoria vaginalis [3]; 3 GAI/HA): 100%
% CONTROL MV (Monochoria vaginalis [3]; 4 GAI/HA): 100%
% CONTROL MV (Monochoria vaginalis [3]; 5 GAI/HA): 100%
% CONTROL SG (Scirpus grossus; 1 GAI/HA): 80%
% CONTROL SG (Scirpus grossus; 2 GAI/HA): 100%
% CONTROL SG (Scirpus grossus; 3 GAI/HA): 95%
% CONTROL SG (Scirpus grossus; 4 GAI/HA): 95%
% CONTROL SG (Scirpus grossus; 5 GAI/HA): 100%
% CONTROL SZ (Sphenoclea zeylanica; 1 GAI/HA): 0%
% CONTROL SZ (Sphenoclea zeylanica; 2 GAI/HA): 100%
% CONTROL SZ (Sphenoclea zeylanica; 3 GAI/HA): 100%
% CONTROL SZ (Sphenoclea zeylanica; 4 GAI/HA): 100%
% CONTROL SZ (Sphenoclea zeylanica; 5 GAI/HA): 100%
% INJURY OR CONTROL AI (Aeschynomene indica; 3 G/HA): 68%
% INJURY OR CONTROL AI (Aeschynomene indica; 6 G/HA): 62%
% INJURY OR CONTROL AI (Aeschynomene indica; 12 G/HA): 46%
% INJURY OR CONTROL SEDGE (Annual sedge (?); 3 G/HA): 43%
% INJURY OR CONTROL SEDGE (Annual sedge (?); 6 G/HA): 56%
% INJURY OR CONTROL SEDGE (Annual sedge (?); 12 G/HA): 56%
% INJURY OR CONTROL CC (Caperonia castaniifolia; 3 G/HA): 11%
% INJURY OR CONTROL CC (Caperonia castaniifolia; 6 G/HA): 19%
% INJURY OR CONTROL CC (Caperonia castaniifolia; 12 G/HA): 18%
% INJURY OR CONTROL COM (Commelina communis; 3 G/HA): 13%
% INJURY OR CONTROL COM (Commelina communis; 6 G/HA): 24%
% INJURY OR CONTROL COM (Commelina communis; 12 G/HA): 23%
% INJURY OR CONTROL EC (Echinochloa colonum; 3 G/HA): 26%
% INJURY OR CONTROL EC (Echinochloa colonum; 6 G/HA): 30%
% INJURY OR CONTROL EC (Echinochloa colonum; 12 G/HA): 24%
% INJURY OR CONTROL EA (Eclipta alba; 3 G/HA): 13%
% INJURY OR CONTROL EA (Eclipta alba; 6 G/HA): 23%
% INJURY OR CONTROL EA (Eclipta alba; 12 G/HA): 15%
% INJURY OR CONTROL SE (Sesbania exaltata; 3 G/HA): 68%
% INJURY OR CONTROL SE (Sesbania exaltata; 6 G/HA): 62%
% INJURY OR CONTROL SE (Sesbania exaltata; 12 G/HA): 46%
% INJURY OR CONTROL RICE (rice [4]; 3 G/HA): 3%
% INJURY OR CONTROL RICE (rice [4]; 6 G/HA): 5%
% INJURY OR CONTROL RICE (rice [4]; 12 G/HA): 6%
% CONTROL OR INJURY LEMONT (rice [5]; rate 1 g ai/ha): 10%
% CONTROL OR INJURY LEMONT (rice [5]; rate 2 g ai/ha): 20%
% CONTROL OR INJURY LEMONT (rice [5]; rate 4 g ai/ha): 40%
% CONTROL OR INJURY LEMONT (rice [5]; rate 8 g ai/ha): 50%
% CONTROL OR INJURY M101 (rice [5]; rate 1 g ai/ha): 0%
% CONTROL OR INJURY M101 (rice [5]; rate 2 g ai/ha): 10%
% CONTROL OR INJURY M101 (rice [5]; rate 4 g ai/ha): 10%
% CONTROL OR INJURY M101 (rice [5]; rate 8 g ai/ha): 35%
